Here are results for 27 compounds from patent US9612237B2, “Ritalinic acid immunoassay” (Randox Laboratories Limited, priority 2013, dated 2017).

≈ marks a conversion by molar mass, not a printed value. Structures can show the parent of a compound that is named as a salt. Where two headings read alike, the source gives them in different places. Bounds are passed on as bounds.

Test [1] has as its system antibodies of the invention (antisera generated in response to immunogen of Example 5). Kind of test: Competitive chemiluminescent biochip immunoassay, antiserum raised against immunogen of Example 5, HRP conjugate of Example 6. In kind it is binding, sheep. Particulars: for No measurable CR at given concentration: value is the concentration at which no cross-reactivity was exhibited; for Cross-reactivity / IC50: biochip; for Cross-reactivity: based on 100% specificity to RA; for IC50: calibrator concentration which produces 50% B/B0.

The test system of test [2] is antisera generated in response to immunogen of Example 11. Kind of test: Competitive chemiluminescent biochip immunoassay, antisera raised against immunogen of Example 11, conjugate of Example 12. It is filed as binding, sheep. Conditions: for IC50 / % cross reactivity: biochip; for % cross reactivity: relative to methylphenidate = 100.
The subject of test [3] is antibodies of the invention (antisera generated in response to immunogen of Example 5). The experiment in a line: ELISA, antiserum raised against immunogen of Example 5, HRP conjugate of Example 6. In kind it is binding, sheep. Conditions: for Ave OD: absorbance at 450 nm; for % CR: relative to ritalinic acid = 100. The method, then:
Immunogen (2 mg) from Examples 5 or 11 was prepared in PBS, mixed at a ratio of 50% immunogen in PBS to 50% Freund's Complete Adjuvant (Sigma, Product Number F5881) and emulsified by repeatedly passing the mixture through a tip on the end of a 1 ml syringe, until semi-solid. The emulsified mixture (1 ml) was injected intramuscularly into the sheep (the primary immunisation dose). Further injections (boosts) were prepared (1 mg of immunogen is prepared in PBS and mixed at a ratio of 50% immunogen PBS/50% Freunds Incomplete adjuvant, Sigma, Product Number—F5506) and injected (1 ml) intramuscularly at monthly intervals. Serum was sampled monthly by collection of whole blood from the jugular vein for evaluation of the antibody titre. Prior to immobilisation on a solid substrate (for example, the biochip), the serum was purified using caprylic acid/ammonium sulphate precipitation, as described for example in Chapter 4 of “Making and Using Antibodies—A Practical Handbook” 2nd Edition, edited by G C Howard and M R Kaser, CRC Press.
The ELISA data provided below correspond to the same immunogen, antibody and tracer combination used to generate the Biochip standard curves, i.e. antibodies of the invention (antisera generated in response to immunogen of Example 5) and (2-(4-aminophenyl)-2-(piperidin-2-yl) acetic acid conjugated to HRP (Example 6). The assay methodology used to generate the ELISA data was standard ELISA methodology. Briefly, a microtitre plate was coated with Ig fraction of the antiserum produced at 5 μg/ml, prepared in Tris buffer, pH8.5. The coated plate was simultaneously incubated with calibrator/sample (from 0 ng/ml-80 ng/ml) and HRP conjugate at ⅛K dilution. After washing and substrate addition, absorbances were read at 450 nm. The absorbance in each well was inversely proportional to the concentration of ritalinic acid or methylphenidate hydrochloride in the calibrator/sample added to that well.

Test [4] has as its system Abcam polyclonal sheep antibody to MPH. Particulars: Abcam antibody raised using MPH-BTG as the immunogen; cited from earlier work.
Where [5] appears, read: value is the concentration at which no cross-reactivity was exhibited.
The mark [6] stands for this setting: Methylphenidate calibrator 78.13 ng/ml.
[7] abbreviates: Methylphenidate calibrator 156.25 ng/ml.
The mark [8] stands for this setting: Methylphenidate calibrator 312.50 ng/ml.
Where [9] appears, read: Methylphenidate calibrator 625 ng/ml.
The mark [10] stands for this setting: Methylphenidate calibrator 1,250.00 ng/ml.
The mark [11] stands for this setting: Methylphenidate calibrator 2,500.00 ng/ml.
The mark [12] stands for this setting: Methylphenidate calibrator 5,000.00 ng/ml.
Where [13] appears, read: Methylphenidate calibrator 10,000.00 ng/ml.

`CC(=O)Nc1ccc(O)cc1` [Acetoaminophen]: the “No measurable CR at given concentration” value in test [1] is 1000 µg/mL. The “Concentration exhibiting no cross-reactivity” value in test [2] (setting [5]) was found to be 2500 µg/mL.
Taken in the same sequence, the figures for `CCO[C@@H]1O[C@H](C(=O)O)[C@@H](O)[C@H](O)[C@H]1O` [Ethyl glucuronide] were 100 µg/mL and 100 µg/mL.
For the compound `CCOC(=O)C(c1ccccc1)C1CCCCN1` (stereo not shown) [Ethylphenidate], in test [1], the “No measurable CR at given concentration” value came to 100 µg/mL.
For `O=C(CCCN1CCC(O)(c2ccc(Cl)cc2)CC1)c1ccc(F)cc1` [Haloperidol], in test [1], the “No measurable CR at given concentration” value is 10 µg/mL. Further, in test [2] (setting [5]), the “Concentration exhibiting no cross-reactivity” value came to 10 µg/mL.
For `CC(C)Cc1ccc(C(C)C(=O)O)cc1` (stereo not shown) [Ibuprofen], in test [1], the “No measurable CR at given concentration” value was determined as 1000 µg/mL. In addition, in test [2] (value is the concentration at which no cross-reactivity was exhibited, listed as ibuprofen), the “Concentration exhibiting no cross-reactivity” value amounted to 1000 µg/mL.
For `COC(=O)C(c1ccccc1)C1CCCCN1` (stereo not shown) [Methylphenidate Hydrochloride], the IC50 – broadly, the concentration that inhibits the measured activity by half – in test [3] is >>>80 ng/ml. Moreover, the “Ave OD” value was found to be 1.677 in test [3] (calibrator 1.25 ng/ml); 1.644 in test [3] (calibrator 2.5 ng/ml); 1.635 in test [3] (calibrator 5 ng/ml); 1.563 in test [3] (calibrator 10 ng/ml); 1.476 in test [3] (calibrator 20 ng/ml); 1.402 in test [3] (calibrator 40 ng/ml). Also, in test [3] (calibrator 80 ng/ml), the “Ave OD” value is given as 1.311. In addition, the B/Bo in test [3] (calibrator 1.25 ng/ml) is 101.9; in test [3] (calibrator 2.5 ng/ml) it was 99.9; in test [3] (calibrator 5 ng/ml), 99.4; in test [3] (calibrator 10 ng/ml), 95.0; in test [3] (calibrator 20 ng/ml), 89.7; in test [3] (calibrator 40 ng/ml), 85.2. Moreover, the B/Bo in test [3] (calibrator 80 ng/ml) worked out at 79.7. The “% CR” value in test [3] was <<<10.5%.
In the case of `COC(=O)C(c1ccccc1)C1CCCCN1` (stereo not shown) [Methylphenidate, methylphenidate], the B/B0 % is reported as 87% in test [1] (setting [6]); 81% in test [1] (setting [7]); 75% in test [1] (setting [8]); 66% in test [1] (setting [9]); 51% in test [1] (setting [10]); 34% in test [1] (setting [11]). In addition, the B/B0 % in test [1] (setting [12]) worked out at 23%; in test [1] (setting [13]), 16%. For the same compound, the RLU in test [1] (setting [6]) worked out at 3878 RLU; in test [1] (setting [7]), 3604 RLU; in test [1] (setting [8]), 3319 RLU; in test [1] (setting [9]), 2912 RLU; in test [1] (setting [10]), 2244 RLU; in test [1] (setting [11]) it was 1517 RLU. Besides, the RLU was 1015 RLU in test [1] (setting [12]) and 697 RLU in test [1] (setting [13]). Moreover, in test [1], the Cross-reactivity entry is reported as “Cross-reactivity 0.4%”. The 50% inhibitory concentration (IC50) entry in test [1] was “IC50 = 1,323.50 ng/ml”; in test [2], 2.6 ng/mL (≈ 0.0111 µM). Besides, the “% cross reactivity” value in test [2] is recorded as 100%.
On to `CNCCC[C@@]1(c2ccc(F)cc2)OCc2cc(C#N)ccc21` [N-desmethylescilatopram], for which, in test [1], the “No measurable CR at given concentration” value was 10 µg/mL.
For `N[C@H]1CC[C@@H](c2ccc(Cl)c(Cl)c2)c2ccccc21` [Norsertraline], the “No measurable CR at given concentration” value in test [1] worked out at 10 µg/mL.
Still for that read-out and setting: in the case of `CNCCC=C1c2ccccc2CCc2ccccc21` [Nortriptylene] it was 10 µg/mL.
For the compound `O=C(O)C(c1ccccc1)C1CCCCN1` (stereo not shown) [RA, ritalinic acid], the Cross-reactivity result is “less than 0.9%” in test [4] and “Cross-reactivity 100%” in test [1]. The B/B0 % in test [1] (RA calibrator 3.91 ng/ml) stood at 65%; in test [1] (RA calibrator 7.81 ng/ml), 40%; in test [1] (RA calibrator 15.63 ng/ml), 31%; in test [1] (RA calibrator 31.25 ng/ml) it was 18%; in test [1] (RA calibrator 62.50 ng/ml), 11%; in test [1] (RA calibrator 125.00 ng/ml), 6%. The figures for the B/B0 % in test [1] (RA calibrator 250.00 ng/ml) and in test [1] (RA calibrator 500.00 ng/ml) were 4% and 2%, respectively. Besides, the RLU amounted to 3459 RLU in test [1] (RA calibrator 3.91 ng/ml); 2552 RLU in test [1] (RA calibrator 7.81 ng/ml); 1980 RLU in test [1] (RA calibrator 15.63 ng/ml); 1111 RLU in test [1] (RA calibrator 31.25 ng/ml); 677 RLU in test [1] (RA calibrator 62.50 ng/ml); 374 RLU in test [1] (RA calibrator 125.00 ng/ml). For the same compound, the figures for the RLU in test [1] (RA calibrator 250.00 ng/ml) and in test [1] (RA calibrator 500.00 ng/ml) were 247 RLU and 134 RLU, respectively. Further, the IC50 result is “IC50 = 5.21 ng/ml,” in test [1], 260 ng/mL (≈ 1.19 µM) in test [2] and 8.41 ng/mL in test [3]. Also, the “% cross reactivity” value in test [2] is 1%; in test [2] (listed as ritalinic acid) it was 1.0%. The “Ave OD” value amounted to 1.346 in test [3] (calibrator 1.25 ng/ml); 1.169 in test [3] (calibrator 2.5 ng/ml); 0.987 in test [3] (calibrator 5 ng/ml); 0.751 in test [3] (calibrator 10 ng/ml); 0.584 in test [3] (calibrator 20 ng/ml); 0.424 in test [3] (calibrator 40 ng/ml). In test [3] (calibrator 80 ng/ml), the “Ave OD” value is recorded as 0.311. Further, the B/Bo in test [3] (calibrator 1.25 ng/ml) is recorded as 82.4; in test [3] (calibrator 2.5 ng/ml), 71.5; in test [3] (calibrator 5 ng/ml), 60.4; in test [3] (calibrator 10 ng/ml), 46.0; in test [3] (calibrator 20 ng/ml) it was 35.7; in test [3] (calibrator 40 ng/ml) it was 26.0. Also, the B/Bo in test [3] (calibrator 80 ng/ml) amounted to 19.0. The “% CR” value in test [3] is on record as 100%.
Turning to `O=C(O)c1ccccc1O` [Salicylic acid], the “No measurable CR at given concentration” value in test [1] came to 1000 µg/mL. For the same compound, in test [2] (setting [5]), the “Concentration exhibiting no cross-reactivity” value came out at 1000 µg/mL.
For `COc1cccc(C2(O)CCCCC2CN(C)C)c1` (stereo not shown) [Tramadol], in test [1], the “No measurable CR at given concentration” value was found to be 10 µg/mL.
On to `CNCCC(Oc1ccc(C(F)(F)F)cc1)c1ccccc1` (stereo not shown) [fluoxetine], for which the “No measurable CR at given concentration” value in test [1] came to 100 µg/mL.
The same measure, in the same setting: in the case of `Clc1cccc(N2CCNCC2)c1` [mCPP] it was 10 µg/mL.
Consider `COc1cccc(C2(O)CCCCC2CN(C)C)c1` (stereo not shown) [tramadol HCl], for which, in test [2] (setting [5]), the “Concentration exhibiting no cross-reactivity” value is 10 µg/mL.
The same measure, in the same setting: in the case of `O=c1n(CCCN2CCN(c3cccc(Cl)c3)CC2)nc2ccccn12` [trazodone HCl] it was 10 µg/mL.
As for `O=c1n(CCC[N+]2([O-])CCN(c3cccc(Cl)c3)CC2)nc2ccccn12` [trazodone N-oxide], the “Concentration exhibiting no cross-reactivity” value in test [2] was 0.4 µg/mL.
In the case of `O=C(O)C(Cl)(Cl)Cl` [trichloroacetic acid], the “Concentration exhibiting no cross-reactivity” value in test [2] (setting [5]) is 100 µg/mL.
Same read-out and setting: in the case of `O=C(O)[C@H]1O[C@@H](OCC(Cl)(Cl)Cl)[C@H](O)[C@@H](O)[C@@H]1O` [urochloralic acid] it was 100 µg/mL; in that of `COc1ccc(C(CN(C)C)C2(O)CCCCC2)cc1` (stereo not shown) [venlafaxine HCl], 0.18 µg/mL.
Still for that read-out and setting: under `CCN(C(C)=O)c1cccc(-c2ccnc3c(C#N)cnn23)c1` [zaleplon] stands 10 µg/mL; under `Cc1ccc(-c2nc3ccc(C)cn3c2CC(=O)N(C)C)cc1` [zolpidem tartrate], 10 µg/mL.
Still for that read-out and setting: in the case of `CN1CCN(C(=O)OC2c3nccnc3C(=O)N2c2ccc(Cl)cn2)CC1` (stereo not shown) [zopiclone] it was 10 µg/mL.
With Dextromorphan, the “No measurable CR at given concentration” value in test [1] was 10 µg/mL.
dextrorphan tartrate salt: the “Concentration exhibiting no cross-reactivity” value in test [2] (setting [5]) was determined as 0.25 µg/mL.
The same measure, in the same setting: under salicylic acid B-D glucuronide stands 125 µg/mL.
